The molecules below were run against T1, Serine/threonine-protein kinase Chk1 (Homo sapiens, UniProt O14757) (assay: Kinase Inhibiting Activity Assay: Chk-1 Kinase Inhibiting ActivityThe compounds of the invention were tested for activity against Chk-1 kinase using the materials and protocols set out below.Reaction Buffer:Base Reaction buffer: 20 mM Hepes (pH 7.5), 10 mM MgCl2, 1 mM EGTA, 0.02% Brij35, 0.02 mg/ml BSA, 0.1 mM Na3VO4, 2 mM DTT, 1% DMSO*Required cofactors are added individually to each kinase reactionReaction Procedure:(i) Prepare indicated substrate in freshly prepared Base Reaction Buffer(ii) Deliver any required cofactors to the substrate solution above(iii) Deliver indicated kinase into the substrate solution and gently mix(iv) Deliver compounds in DMSO into the kinase reaction mixture(v) Deliver 33P-ATP (specific activity 0.01 μCi/μl final) into the reaction mixture to initiate the reaction.(vi) Incubate kinase reaction for 120 minutes at room temperature(vii) Reactions are spotted onto P81 ion exchange paper (Whatman #3698-915)(viii) Wash filters extensively in 0.1% phosphoric acid.(ix) Dry filters and measure counts in scintillation counterKinase Information:CHK-1 Genbank Accession # AF016582Recombinant full length construct, N-terminal GST tagged, purified from insect cells.No special measures were taken to activate this kinase.Final concentration in assay=0.5 nMSubstrate: CHKtidePeptide sequence: [[…]]Final concentration in assay=20 μM).
T1 sequence (O14757 whole entry): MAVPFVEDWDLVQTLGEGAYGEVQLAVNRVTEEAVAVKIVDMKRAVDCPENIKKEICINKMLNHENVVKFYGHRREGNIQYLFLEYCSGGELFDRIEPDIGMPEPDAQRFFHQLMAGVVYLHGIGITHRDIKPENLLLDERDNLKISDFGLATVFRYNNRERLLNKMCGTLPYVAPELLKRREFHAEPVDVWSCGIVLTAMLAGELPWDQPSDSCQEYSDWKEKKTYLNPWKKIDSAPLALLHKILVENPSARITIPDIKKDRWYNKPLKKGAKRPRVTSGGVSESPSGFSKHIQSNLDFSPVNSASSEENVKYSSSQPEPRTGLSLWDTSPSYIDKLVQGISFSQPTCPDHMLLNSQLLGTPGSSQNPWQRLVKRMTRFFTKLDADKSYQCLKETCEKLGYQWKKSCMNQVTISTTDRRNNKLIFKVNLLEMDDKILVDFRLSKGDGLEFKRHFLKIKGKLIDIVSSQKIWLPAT

Structure (SMILES)	IC50 [nM]
COc1cc(CNC(=O)C2CC2)ccc1-c1cc(Nc2cnc(C#N)cn2)n[nH]1	0.59
COc1cc(OCc2cocn2)ccc1-c1cc(Nc2cnc(C#N)cn2)n[nH]1	< 1
COc1cc(C2CCCCN2C)ccc1-c1cc(Nc2cnc(C#N)cn2)n[nH]1 (stereo not drawn)	0.51

From ChEMBL document CHEMBL5727147, “Pharmaceutical compounds” (2018)
